These are literature values, as cited in patent publication US8975284B2, “Co-solvent compositions and methods for improved delivery of dantrolene therapeutic agents” (US WorldMeds LLC, priority 2007, dated 2015).

Each structure is given as a SMILES string. Like-named read-outs stand apart in the source and are kept apart here.

Experiment in data set [1]: not given
The source holds these as a separate data set.

Experiment in data set [2]: not given
The source holds these as a separate data set.

Regarding `O=C1CN(/N=C/c2ccc(-c3ccc([N+](=O)[O-])cc3)o2)C(=O)[N-]1.[Na+]` [Dantrolene sodium, 1-[[5-(p-nitrophenyl)furfurylidene]-amino]hydantoin sodium salt], the pKa is recorded as 7.4. Consider `O=C1CN(N=Cc2ccc(-c3ccc([N+](=O)[O-])cc3)o2)C(=O)N1` [dantrolene, 1-[5-(p-nitrophenyl)furfurylideneamino]hydantoin], for which the pKa entry was “about 7.5”. Further, the “solubility of free acid form” value in data set [1] is recorded as “totally insoluble”. `CC(C)(C)O` [TBA, Tertiary Butyl Alcohol]: the pKa in data set [2] is reported as 15.37 ± 0.29.

The pKa is the pH at which an ionisable group is half protonated.
